Results: patent publication US6806249B2, “Perfume containing surfactant compositions having perfume burst when diluted” (Unilever Home & Personal Care USA, a division of Conopco, priority 2002, dated 2004)
Read-outs that look alike come from different tables or passages of the source. Marks after values point to notes of the source that are not given here.

Tests used:
[1] = 50° C.; cited from earlier work
[2] = Critical micellization concentration (CMC) of surfactants; type: physicochemical; conditions: no reference given
Excerpt: As noted, the perfume burst is affected not only by the perfume properties, but also by properties of the formulation in which the perfume is found. Thus, the number and type of surfactant micelles found in a surfactant solution also has an effect. […] The critical micellization concentration is defined as the surfactant concentration at which micelles begin to form from unassociated surfactant monomers (M. J. Rosen, Surfactants and Interfacial Phenomena, 2nd Ed., 1989). Conversely, in a surfactant with low critical micelle concentration (e.g., one where micelles do form easily or, stated differently, don't break apart as readily once formed), a perfume, being generally more hydrophobic, tends to stay in the surfactant more readily. As a result, the perfume will tend not to “burst” (increase perfume headspace) as readily and, to achieve more headspace, more dilution may be required. The CMC of the surfactant system also affects “perfume burst”. Thus, for example, a surfactant system of relatively low CMC (e.g., sodium lauryl ether sulfate, also known as SLES) lowers the PBI and can greatly reduce the expected “perfume burst” on dilution. By contrast, surfactant systems of relatively higher CMC (e.g., sodium laurate compared to SLES) would raise PBI and can thus increase “perfume burst” on dilution.

[3] = Fragrance burst in shower liquids with different sodium laurate concentrations (FIG. 6); type: physicochemical; conditions: 5% sodium laurate product compared with 10, 15 (and 20) wt.%
Protocol: Limonene (PBI=12.2) was tested in shower liquids containing sodium laurate at 5, 10, 15 and 20 wt.%, γ-Methyl lonone and menthone were tested in sodium laurate at 5, 10 and 15 wt.% (FIG. 6).

[4] = Fragrance burst in shower liquids with surfactants of different CMC (FIG. 8); type: physicochemical; conditions: 5% sodium laureth sulfate (CMC=0.0011 wt/wt) compared with 5% sodium laurate (CMC=0.005 wt/wt)
Protocol: Limonene and γ-Methyl lonone were tested in two different shower liquid samples. One product was formulated with 5% sodium laurate (CMC=0.005 wt/wt) and the second with 5% sodium laureth sulfate (CMC=0.0011 wt/wt) (FIG. 8).

[5] = Dilution behaviour of components of a twelve-component perfume mixture in 5 wt. % sodium laurate, normalized GC headspace (FIG. 9); type: physicochemical; conditions: component of perfume mixture in 5 wt. % sodium laurate
Protocol: A typical fully formulated perfume used in a commercial product, e.g., personal wash formulation, usually is a multi-component composition in which the properties of each perfume component can vary dramatically. A typical perfume mixture in a 5 wt. % sodium laurate formulation was tested for its “perfume burst” behaviour upon dilution. The PBI values of the components in this perfume mixture vary from a large negative number (e.g., benzyl acetate, PBI=−819; PEA, PBI=−200 in sodium laurate solution) to a large positive number (e.g., gamma-methyl-ionone, PBI=1,677 in sodium laurate solution). The dilution behaviour of each component in this perfume mixture is shown in FIG. 9 (the graph represents a normalized GC measurement so the amount of burst of each molecule is clearly indicated). In this perfume mixture of twelve components, the dilution behaviour of each component is different. Each component has a unique dilution curve (GC headspace vs. dilution factor) governed by the factors (hydrophobicity, volatility, etc) discussed previously. […] For those perfumes with a moderate positive PBI (e.g., limonene, PBI=12; p-cymene=12.2 in sodium laurate solution), the perfume headspaces increases 1-2 times upon dilution.

Sodium laureth sulfonate (2EO)
CMC [1]: 0.0011*** wt./wt.

CCCCCCCC(=O)NCCC[N+](C)(C)CC(=O)[O-] [Caprylamidopropyl betaine]
CMC [2]: 0.00032 wt./wt.

CC(=O)/C(C)=C/C1C(C)=CCCC1(C)C (stereo not shown) [γ-methyl ionone]
dilutions needed to reach maximum fragrance burst [3]: reached with fewer dilutions in the 5% soap product | overall fragrance burst [4]: lower overall fragrance burst | perfume headspace behaviour upon dilution [5]: as high as seven times

CC(=O)OCc1ccccc1 [Benzyl Acetate]
perfume headspace behaviour upon dilution [5]: decrease upon dilution

CC(C)[C@@H]1CC[C@@H](C)CC1=O [Menthone]
dilutions needed to reach maximum fragrance burst [3]: reached with fewer dilutions in the 5% soap product

Sodium laureth sulfonate (3EO)
CMC [1]: 0.00084*** wt./wt.

C=C(C)[C@H]1CC=C(C)CC1 [Limonene]
dilutions needed to reach maximum fragrance burst [3]: reached with fewer dilutions in the 5% soap product | overall fragrance burst [4]: lower overall fragrance burst
